Like-named read-outs stand apart in the source and are kept apart here.

For orientation: Cmax means the peak of the concentration-time curve. The Tmax is the time from dosing to the highest level. One may read the EC50 as the concentration that produces a half-maximal response.

Data set [1] in a line: Nontargeted LC–HRMS detection of ingredients in rat plasma after oral administration of each constituent crude drug. To be noted: n = 2.
Method: The rats were fasted for 16 h and then orally administered Angelicae Acutilobae Radix, Paeoniae Radix, Rehmanniae Radix, or Cnidii Rhizoma extract powder suspended in distilled water at a dosage of 1 g/10 mL/kg. […] The two sampling points (1 and 10 h) were set to extensively explore both fast- and slow-absorbing ingredients. The blood samples were centrifuged at 1700×g for 15 min at 4 °C to obtain plasma, and the plasma samples were stored at less than − 75 °C until LC–HRMS analysis.
Before LC–HRMS analysis, the plasma samples were deproteinized using methanol as follows: 100 µL of plasma sample was mixed with 700 µL of methanol and then vortexed for 2 min. After centrifugation at 7000×g for 5 min at 4 °C, the supernatant was collected and then dried using a centrifugal evaporator, dissolved the dried residue in 80 μL of the initial mobile phase of LC, and recentrifuged at 7000×g for 5 min at 4 °C. Finally, a 5 μL aliquot of the supernatant was injected into the LC–HRMS system and analyzed in both positive and negative ion modes.
We interfaced the Acquity Ultra-Performance Liquid Chromatography System (Waters) to a Xevo G2-XS quadrupole time-of-flight MS system (Waters) equipped with an electrospray ionization probe in sensitivity mode. All ions within m/z = 50–1000 were acquired by the MS^E method (data-independent acquisition). […] We created two acquisition functions with different collision energies: a low-energy function with 6 eV collision energy and a high-energy function with 15–40 eV collision energy. The mass spectrometer resolution was set at more than 20,000.
A short description of data set [2]: Pharmacokinetics of ingredients in rat plasma after oral administration of shimotsuto (targeted LC–MS/MS). The format is in vivo. The note with it: in vivo. The text has this: The plasma levels of nine ingredients were quantified using quantitative (targeted) analysis. Among them, seven ingredients (catalpol, paeoniflorin, albiflorin, senkyunolide A, butylphthalide, ferulic acid, and ligustilide) are candidate active ingredients in shimotsuto (Table 1). Two ingredients (bergapten and 8-debenzoylpaeoniflorin) are shimotsuto ingredients which were detected and identified in shimotsuto-treated rat plasma using nontargeted LC–HRMS analysis. The nine ingredients were quantified by collecting plasma samples at 0–24 h after shimotsuto administration, pretreating with the following procedures, and then analyzing by targeted LC–MS/MS using selected reaction-monitoring mode. The LC–MS/MS system was composed of a triple quadruple MS (TripleQuad6500; SCIEX, Framingham, MA, USA) and an Agilent 1290 Infinity LC system (Agilent Technologies, Santa Clara, CA, USA). For highly sensitive and selective quantitative (targeted) analysis of each compound, we preliminarily examined optimal pretreatment and analytical LC–MS/MS methods (e.g., MS parameters and LC conditions).
For quantification of catalpol, paeoniflorin, albiflorin, ferulic acid, and senkyunolide A in plasma, 100 µL of plasma sample was mixed with 20 µL of methanol (or working solution) and 20 µL of internal standard (niflumic acid or swertiamarin) and pretreated by deproteinization using 500 µL of acetonitrile. […] Finally, the dried residue was dissolved in 60 µL of the specific HPLC mobile phase used for analysis and then a 10 μL aliquot was injected into the LC–MS/MS system.
For quantification of ligustilide and butylphthalide in plasma, 200 µL of plasma sample was mixed with 40 µL of methanol (or working solution) and 40 µL of internal standard (imperatorin) and centrifuged at 15000×g for 10 min at 4 °C, the whole volume of supernatant was collected and subsequently pretreated by solid-phase extraction using Oasis HLB Extraction Cartridge (Waters, Milford, MA, USA). The acetonitrile elutes were collected and then dried under a steam of nitrogen gas. Finally, the dried residue was dissolved in 70 µL of the specific HPLC mobile phase and injected 20 µL into the LC–MS/MS system.
For quantification of bergapten in plasma, 100 µL of plasma sample was mixed with 20 µL of methanol (or working solution) and 20 µL of internal standard (niflumic acid) and pretreated by solid-phase extraction using an Oasis HLB 96-well µElution plate. Next, the mixied elutes of acetonitrile and isopropyl alcohol (1:1, v/v) were collected and then dried under a steam of nitrogen gas. Finally, the dried residue was dissolved in 60 µL of the specific HPLC mobile phase and injected 10 µL into the LC–MS/MS system.
For quantification of 8-debenzoylpaeoniflorin in plasma, 100 µL of plasma sample was mixed with 20 µL of methanol (or working solution) and 20 µL of internal standard (niflumic acid) and pretreated by liquid–liquid extraction using 500 µL of ethyl acetate. […] The dried residue was dissolved in 60 µL of the specific HPLC mobile phase and injected 10 µL into the LC–MS/MS system.
In addition, pharmacokinetic parameters of the shimotsuto ingredients detected in the plasma, such as the maximum concentration (Cmax) and area under the plasma level–time curve (AUC0−last), were calculated by noncompartmental moment analysis using Phoenix WinNonlin software (Certara L.P., St. Louis, MO, USA).

The target in another data set is T1, human TRPV1 (Homo sapiens, UniProt Q8NER1).
T1 construct: The full length of each of human transient receptor potential ankyrin 1 (TRPA1), transient receptor potential cation channel subfamily V member 1 (TRPV1); expressed in transfected cells
The data set can be described thus: Ca2+ influx assay for TRP channel agonistic activity in T-REx-293 cells. The note with it: 10 µmol/L test ingredient, positive control 2 µmol/L capsaicin, read-out: % Activation compared to positive control, TRPV1. The format is cell-based. The text has this: (§1) The full length of each of human transient receptor potential ankyrin 1 (TRPA1), transient receptor potential cation channel subfamily V member 1 (TRPV1), transient receptor potential cation channel subfamily V member 4 (TRPV4), and transient receptor potential cation channel subfamily M member 8 (TRPM8) coding region was introduced into a pcDNA4/TO vector (Thermo Fisher Scientific, Waltham, MA, USA) and transfected into T-REx-293 cells (Thermo Fisher Scientific) to obtain stable cell lines expressing human TRPA1, TRPV1, TRPV4, and TRPM8. Next, the cells were cultured in Dulbecco’s Modified Eagle Medium containing 10% fetal bovine serum (FBS), 4 mM L-glutamine, and penicillin/streptomycin.
(§2) First, cells were suspended in culture medium with 1 µg/mL of tetracycline and seeded on a poly-D-lysine-coated 96-well plate at a density of 2.5 × 10^4 cells/well overnight. Next, the cells were used for Ca^2+ influx assay, as described previously with minor modifications, using a FLIPR Calcium 5 Assay Kit (Molecular Devices, San Jose, CA, USA). Briefly, cells were incubated in 80 µL of a Ca^2+-chelating dye dissolved in assay buffer at pH 7.4 (Hanks’ Balanced Salt Solution containing 20 mmol/L of 4-(2-hydroxyethyl)-1-piperazineethanesulfonic acid [HEPES]) for 30 min at room temperature. Next, the plates were assayed in a FlexStation 3 microplate reader (Molecular Devices). The fluorescence intensity was traced entirely for 80 s, and the fluorescence baseline was measured 20 s before application of 20 µL of the test compound (final concentration = 10 µmol/L). The response was expressed as percentage activation as follows:
(§3) Relative fluorescence units (RFU) (% activation) = ([RFUmax − RFUbaseline]/RFUbaseline) × 100
(§4) The activity of each test compound against TRPA1, TRPV1, TRPV4, and TRPM8 was represented as the relative enhancement of the Ca^2+ influx of each positive control as follows: 20 µmol/L of allyl isothiocyanate (TRPA1 agonist), 2 µmol/L of capsaicin (TRPV1 agonist), 4 µmol/L of GSK1016790A (TRPV4 agonist), and 20 µmol/L of icilin (TRPM8 agonist). The dose–response curve was fitted to the sigmoidal dose–response equation (Top: maximum response of each compound), and EC50 was calculated using GraphPad prism 7 software (GraphPad, San Diego, CA, USA).
(§5) Calcium ion influx into TRPA1-, TRPV1-, TRPV4-, or TRPM8-expressing T-REx-293 cells was measured to evaluate the agonistic effect of shimotsuto ingredients on TRP channels. The action of 10 µmol/L of each test ingredient was represented as the relative enhancement of the Ca^2+ influx of each positive control, indicated as follows: 20 µmol/L each of allyl isothiocyanate (TRPA1 agonist), 2 µmol/L capsaicin (TRPV1 agonist), 4 µmol/L GSK1016790A (TRPV4 agonist), and 20 µmol/L icilin (TRPM8 agonist). Dose–response tests of shimotsuto ingredients against TRPA1 were performed to calculate EC50.

The next data set deals with T2, human TRPA1 (Homo sapiens, UniProt O75762).
T2 construct: The full length of each of human transient receptor potential ankyrin 1 (TRPA1); expressed in transfected cells
Described as above. In kind it is cell-based. To be noted: for activation at 10 µM: T-REx-293, 10 µmol/L test ingredient, positive control 20 µmol/L allyl isothiocyanate, read-out: % Activation compared to positive control, TRPA1; for Activation of TRPA1 (in words): TRP stable expression cell lines.
Text: as §1, §2, §3, §4, §5

The next data set deals with T3, human TRPV4 (Homo sapiens, UniProt Q9HBA0).
T3 construct: The full length of each of human transient receptor potential ankyrin 1 (TRPA1); expressed in transfected cells
The description is as above. In kind it is cell-based. To be noted: 10 µmol/L test ingredient, positive control 4 µmol/L GSK1016790A, read-out: % Activation compared to positive control, TRPV4.
Text: as §1, §2, §3, §4, §5

The next data set has as its target T4, human TRPM8 (Homo sapiens, UniProt Q7Z2W7).
T4 construct: The full length of each of human transient receptor potential ankyrin 1 (TRPA1); expressed in transfected cells
The data set is described as above. The format is cell-based. To be noted: 10 µmol/L test ingredient, positive control 20 µmol/L icilin, read-out: % Activation compared to positive control, TRPM8.
Text: as §1, §2, §3, §4, §5

The conditions of data set [3]: cited from earlier work.
Setting [4] is: oral Angelicae Acutilobae Radix 1 g/kg.

T2 sequence (O75762 whole entry): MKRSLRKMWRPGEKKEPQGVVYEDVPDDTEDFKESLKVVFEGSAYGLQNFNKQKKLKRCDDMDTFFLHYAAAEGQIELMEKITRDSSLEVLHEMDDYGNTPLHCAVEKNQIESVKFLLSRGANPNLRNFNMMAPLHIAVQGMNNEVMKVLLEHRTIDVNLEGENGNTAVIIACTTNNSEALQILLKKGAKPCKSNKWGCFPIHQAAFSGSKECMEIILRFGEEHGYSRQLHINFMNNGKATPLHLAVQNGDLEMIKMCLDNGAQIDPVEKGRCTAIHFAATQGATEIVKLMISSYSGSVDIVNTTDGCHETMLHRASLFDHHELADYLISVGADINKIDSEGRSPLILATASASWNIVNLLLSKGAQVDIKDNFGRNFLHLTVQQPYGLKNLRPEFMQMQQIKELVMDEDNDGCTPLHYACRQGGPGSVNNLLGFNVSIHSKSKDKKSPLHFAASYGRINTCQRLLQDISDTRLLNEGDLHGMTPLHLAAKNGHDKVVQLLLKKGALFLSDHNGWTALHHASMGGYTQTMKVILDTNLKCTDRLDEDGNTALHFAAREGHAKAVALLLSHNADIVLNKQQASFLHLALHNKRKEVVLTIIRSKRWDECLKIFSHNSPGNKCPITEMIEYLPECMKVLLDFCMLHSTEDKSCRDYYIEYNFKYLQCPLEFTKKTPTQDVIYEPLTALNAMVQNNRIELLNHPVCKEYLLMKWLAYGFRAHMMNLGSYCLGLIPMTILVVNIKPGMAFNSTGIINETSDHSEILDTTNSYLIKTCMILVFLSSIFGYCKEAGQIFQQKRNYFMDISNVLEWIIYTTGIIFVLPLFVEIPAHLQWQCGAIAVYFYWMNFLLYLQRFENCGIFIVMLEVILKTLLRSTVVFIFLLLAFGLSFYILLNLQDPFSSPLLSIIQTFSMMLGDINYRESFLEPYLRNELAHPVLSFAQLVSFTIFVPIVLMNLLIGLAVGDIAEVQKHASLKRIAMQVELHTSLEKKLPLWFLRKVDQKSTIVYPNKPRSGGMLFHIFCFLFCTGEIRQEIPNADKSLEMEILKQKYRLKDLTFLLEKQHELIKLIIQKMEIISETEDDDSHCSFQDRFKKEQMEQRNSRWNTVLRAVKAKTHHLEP
T3 sequence (Q9HBA0 whole entry): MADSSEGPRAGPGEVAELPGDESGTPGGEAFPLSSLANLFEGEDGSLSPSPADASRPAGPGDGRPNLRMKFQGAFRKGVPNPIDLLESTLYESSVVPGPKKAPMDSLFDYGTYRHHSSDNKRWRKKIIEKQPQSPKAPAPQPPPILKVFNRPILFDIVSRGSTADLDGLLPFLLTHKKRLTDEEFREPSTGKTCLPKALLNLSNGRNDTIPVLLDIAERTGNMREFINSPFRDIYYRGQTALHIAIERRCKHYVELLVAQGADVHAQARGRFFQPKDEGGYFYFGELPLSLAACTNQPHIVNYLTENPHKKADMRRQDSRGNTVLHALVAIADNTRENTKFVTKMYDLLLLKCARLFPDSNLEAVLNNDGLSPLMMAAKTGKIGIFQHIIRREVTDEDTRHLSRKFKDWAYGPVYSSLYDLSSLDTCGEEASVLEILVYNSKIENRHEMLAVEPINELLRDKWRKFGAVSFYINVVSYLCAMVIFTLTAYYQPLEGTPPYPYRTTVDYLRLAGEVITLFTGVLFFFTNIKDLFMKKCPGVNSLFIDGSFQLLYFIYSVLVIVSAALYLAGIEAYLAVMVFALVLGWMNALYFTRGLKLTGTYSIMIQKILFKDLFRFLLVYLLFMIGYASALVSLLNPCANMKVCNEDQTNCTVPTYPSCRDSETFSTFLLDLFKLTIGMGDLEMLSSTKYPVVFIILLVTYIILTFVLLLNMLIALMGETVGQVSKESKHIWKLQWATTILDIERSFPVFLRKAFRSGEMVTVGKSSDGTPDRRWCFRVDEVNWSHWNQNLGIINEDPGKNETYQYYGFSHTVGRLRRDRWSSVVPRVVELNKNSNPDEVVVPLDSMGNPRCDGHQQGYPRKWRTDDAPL
T4 sequence (Q7Z2W7 whole entry): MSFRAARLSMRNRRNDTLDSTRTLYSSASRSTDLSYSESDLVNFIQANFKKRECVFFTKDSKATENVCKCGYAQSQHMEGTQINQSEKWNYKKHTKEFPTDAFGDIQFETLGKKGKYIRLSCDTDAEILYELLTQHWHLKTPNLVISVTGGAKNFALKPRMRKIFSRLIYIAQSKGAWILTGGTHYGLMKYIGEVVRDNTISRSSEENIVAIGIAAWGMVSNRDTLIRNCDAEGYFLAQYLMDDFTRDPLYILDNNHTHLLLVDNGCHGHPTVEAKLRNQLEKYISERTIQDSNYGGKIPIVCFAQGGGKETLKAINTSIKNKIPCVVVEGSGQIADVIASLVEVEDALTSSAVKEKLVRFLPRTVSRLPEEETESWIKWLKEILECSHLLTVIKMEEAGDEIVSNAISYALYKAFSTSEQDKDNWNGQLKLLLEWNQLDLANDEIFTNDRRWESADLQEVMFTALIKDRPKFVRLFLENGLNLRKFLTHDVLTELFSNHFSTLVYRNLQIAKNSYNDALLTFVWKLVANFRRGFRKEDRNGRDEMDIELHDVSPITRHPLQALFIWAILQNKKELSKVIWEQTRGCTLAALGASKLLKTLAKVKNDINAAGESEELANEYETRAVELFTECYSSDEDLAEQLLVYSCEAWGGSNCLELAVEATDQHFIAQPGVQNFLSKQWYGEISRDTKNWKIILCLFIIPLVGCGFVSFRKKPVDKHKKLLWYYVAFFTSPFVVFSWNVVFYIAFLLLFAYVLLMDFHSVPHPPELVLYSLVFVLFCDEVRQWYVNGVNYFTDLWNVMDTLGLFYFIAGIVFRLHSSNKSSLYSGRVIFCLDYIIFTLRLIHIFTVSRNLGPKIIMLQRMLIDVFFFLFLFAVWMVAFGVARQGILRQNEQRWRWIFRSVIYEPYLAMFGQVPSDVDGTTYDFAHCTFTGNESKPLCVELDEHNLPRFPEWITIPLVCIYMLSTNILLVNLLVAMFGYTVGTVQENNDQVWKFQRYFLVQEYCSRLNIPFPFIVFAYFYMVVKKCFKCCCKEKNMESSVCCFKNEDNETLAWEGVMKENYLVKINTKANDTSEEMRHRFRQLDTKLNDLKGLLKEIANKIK
T1 sequence (Q8NER1 whole entry): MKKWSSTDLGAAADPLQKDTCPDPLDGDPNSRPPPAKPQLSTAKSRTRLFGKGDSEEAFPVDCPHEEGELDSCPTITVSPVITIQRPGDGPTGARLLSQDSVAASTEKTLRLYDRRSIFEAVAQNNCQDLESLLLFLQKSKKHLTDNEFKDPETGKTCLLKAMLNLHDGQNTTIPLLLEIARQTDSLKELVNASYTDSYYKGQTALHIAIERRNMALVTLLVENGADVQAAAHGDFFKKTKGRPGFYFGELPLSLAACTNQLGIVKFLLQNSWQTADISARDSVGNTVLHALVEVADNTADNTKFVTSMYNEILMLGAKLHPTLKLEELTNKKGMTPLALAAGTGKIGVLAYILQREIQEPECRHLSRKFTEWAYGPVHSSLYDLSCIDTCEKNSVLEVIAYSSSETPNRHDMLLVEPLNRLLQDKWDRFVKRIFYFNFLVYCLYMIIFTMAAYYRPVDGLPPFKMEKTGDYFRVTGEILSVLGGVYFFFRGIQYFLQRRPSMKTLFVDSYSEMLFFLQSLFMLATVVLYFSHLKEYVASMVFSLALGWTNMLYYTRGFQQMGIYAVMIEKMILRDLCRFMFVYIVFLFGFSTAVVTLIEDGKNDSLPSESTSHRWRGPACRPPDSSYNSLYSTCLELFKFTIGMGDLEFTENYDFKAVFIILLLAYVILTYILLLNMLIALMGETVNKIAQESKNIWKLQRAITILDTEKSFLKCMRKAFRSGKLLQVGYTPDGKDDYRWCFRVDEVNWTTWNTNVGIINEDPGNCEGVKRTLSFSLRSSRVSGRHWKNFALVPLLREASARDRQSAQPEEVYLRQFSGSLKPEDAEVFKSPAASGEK

Regarding `CCCC=C1OC(=O)c2ccccc21` [3-Butylidenephthalide], in data set [1] (oral Cnidii Rhizoma 1 g/kg), the “Plasma collected 1 h postadministration (detection)” value was “++ (The number of + signs represent the sample number in which the ingredient was detected in the plasma after administration of each constituent crude drug of shimotsuto (n = 2 per sampling time per crude drug))” and the “Plasma collected 10 h postadministration (detection)” value is “Not detected”.
In the case of `CC12CC3(O)OC(O1)C1(CO)C3CC21OC1OC(CO)C(O)C(O)C1O` (centres unmarked) [8-Debenzoylpaeoniflorin], in data set [2] (rat), the “Cmax compared to paeoniflorin” value is given as “approximately tenfold”. Besides, in data set [2] (rat, po, 1 g/kg), the AUC(0-t) worked out at 811 ng·h/mL, the concentration peaked (Cmax) at 466 ng/mL and the Tmax turned out to be 60 min. In addition, in data set [1] (oral Paeoniae Radix 1 g/kg), the “Plasma collected 1 h postadministration (detection)” value is listed as “++ (The number of + signs represent the sample number in which the ingredient was detected in the plasma after administration of each constituent crude drug of shimotsuto (n = 2 per sampling time per crude drug))” and the “Plasma collected 10 h postadministration (detection)” value is “+ (The number of + signs represent the sample number in which the ingredient was detected in the plasma after administration of each constituent crude drug of shimotsuto (n = 2 per sampling time per crude drug))”. In addition, the activation at 10 µM at human TRPV1 came to 1%. On human TRPA1, the activation at 10 µM stood at 30% and the “Activation of TRPA1 (in words)” value is on record as “slightly activated”. Further, the activation at 10 µM at human TRPV4 worked out at 1%. In addition, the activation at 10 µM at human TRPM8 was found to be 2%.
Regarding `COc1c2ccoc2cc2oc(=O)ccc12` [Bergapten], the AUC(0-t) in data set [2] (rat plasma, oral shimotsuto 1 g/kg, from mean concentration (n = 3) per time point, read-out: AUC0−last) turned out to be 0.0105 ng·h/mL. In data set [2] (rat plasma, oral shimotsuto 1 g/kg, from mean concentration (n = 3) per time point, read-out: Cmax), the maximum concentration (Cmax) stood at 0.0837 ng/mL. Further, the Tmax in data set [2] (rat plasma, oral shimotsuto 1 g/kg, from mean concentration (n = 3) per time point, read-out: tmax) was found to be 15 min. Moreover, in data set [1] (setting [4]), the “Plasma collected 1 h postadministration (detection)” value is “+ (The number of + signs represent the sample number in which the ingredient was detected in the plasma after administration of each constituent crude drug of shimotsuto (n = 2 per sampling time per crude drug))”. In addition, the “Plasma collected 10 h postadministration (detection)” value in data set [1] (setting [4]) is listed as “Not detected”. The activation at 10 µM at human TRPV1 amounted to 0%; at human TRPA1, 3%; at human TRPV4, 0%; at human TRPM8, 0%.
`CCCCC1OC(=O)c2ccccc21` (centres unmarked) [Butylphthalide] returned an AUC(0-t) in data set [2] (rat, po, 1 g/kg) of 4.12 ng·h/mL. Besides, the highest level in data set [2] (rat, po, 1 g/kg) (Cmax) was 13.7 ng/mL. In addition, in data set [2] (rat, po, 1 g/kg), the Tmax was 30 min. The activation at 10 µM at human TRPV1 is -1%; on human TRPA1, 73%; on human TRPV4, 0%; at human TRPM8, -1%. The “Activation of TRPA1 (in words)” value on human TRPA1 is “potently activated”. Moreover, the 50% effective concentration (EC50) at human TRPA1 (dose–response test, Ca2+ influx, read-out: EC50 against TRPA1) stood at 3.2 µM. In addition, the “Pharmacological action related to improvement of blood and the circulatory system” value was “Vasodilation” in data set [3] (ref 9); “vasorelaxation and increased blood flow effects” in data set [3] (ref 13).
For the compound `O.Oc1cc(O)c2c(c1)O[C@H](c1ccc(O)c(O)c1)[C@@H](O)C2` [Catechin], in data set [1] (oral Paeoniae Radix 1 g/kg), the “Plasma collected 1 h postadministration (detection)” value is reported as “++ (The number of + signs represent the sample number in which the ingredient was detected in the plasma after administration of each constituent crude drug of shimotsuto (n = 2 per sampling time per crude drug))” and the “Plasma collected 10 h postadministration (detection)” value is “Not detected”.
On to `COc1cc(/C=C/COC(=O)/C=C/c2ccc(O)c(OC)c2)ccc1O` [Coniferyl ferulate], for which, in data set [1] (oral Cnidii Rhizoma 1 g/kg), the “Plasma collected 1 h postadministration (detection)” value is listed as “++ (The number of + signs represent the sample number in which the ingredient was detected in the plasma after administration of each constituent crude drug of shimotsuto (n = 2 per sampling time per crude drug))” and the “Plasma collected 10 h postadministration (detection)” value is “+ (The number of + signs represent the sample number in which the ingredient was detected in the plasma after administration of each constituent crude drug of shimotsuto (n = 2 per sampling time per crude drug))”.
For `COc1cc(O)c2c(=O)cc(C)oc2c1` [Eugenin], in that order: “++ (The number of + signs represent the sample number in which the ingredient was detected in the plasma after administration of each constituent crude drug of shimotsuto (n = 2 per sampling time per crude drug))” and “Not detected”.
As to `COc1cc(/C=C/C(=O)O)ccc1O` [Ferulic acid], the AUC(0-t) in data set [2] (rat, po, 1 g/kg) is 75 ng·h/mL. Moreover, the highest level in data set [2] (rat, po, 1 g/kg) (Cmax) was 12.4 ng/mL. The time of peak concentration (Tmax) in data set [2] (rat, po, 1 g/kg) came to 15 min. The activation at 10 µM was 0% at human TRPV1, 3% on human TRPA1, 0% on human TRPV4 and 5% at human TRPM8. Besides, the “Pharmacological action related to improvement of blood and the circulatory system” value in data set [3] (ref 14) was “Vasodilation effect [14]”.

Source of the values: PMC7902330, “Pharmacokinetic study of traditional Japanese Kampo medicine shimotsuto used to treat gynecological diseases in rats” (Journal of Natural Medicines, 2021).
